# Patent publication EP1463487B1, “LIPOSOMAL DELIVERY OF VITAMIN E BASED COMPOUNDS” (RESEARCH DEVELOPMENT FOUNDATION, priority 2001, dated 2003)
# Read-outs that look alike come from different tables or passages of the source. Marks after values point to notes of the source that are not given here.
# Legend:
# 66 cl.4-GFP cells [1] = experiment: Visible lung metastases of 66 cl.4-GFP tumors in Balb/c mice; format: in vivo; parameters: Inhibition (%) of visible lung metastases: concentration or dose not given beside the values; details: liposomal formulations by aerosol; for Visible lung metastases/animal: 36 µg per animal per day, 19 or 21 days; for Inhibition (%) of visible lung metastases: versus control
# Excerpt: (§1) Metastastic lesions in the five lung lobes were counted visually at time of sacrifice. Fluorescent green micro-metastatic cancer cell colonies in the left lung lobe and lymph nodes were counted using a Nikon fluorescence microscope (TE-200) with a 20 x objective (200 x magnification) and Image-Pro Plus (version 4.1; Media Cybernetics, Silver Spring, MD) software associated with the microscope. Fluorescent lesions were separated into three size grouping: <5 µm , 5-10 µm and >10 µm.
# MDA-MB-435 GFP FL cells = experiment: Tumor growth of MDA-MB-435 GFP FL breast cancer cells in nude mice; format: in vivo, Nu/Nu athymic nude mice; details: day 35; α-TEA in liposome via aerosol; MSC 3ppm in water by gavage
# Experimental: Animals were given a total of 8 mg compound per day. […] Alpha-TEA liposome gavage reduced tumor growth by 68, 75, 78, 79 and 79% on days 27, 29, 31, 33, and 35, respectively (Fig. 15).
# Animals were gavaged 3ppm methylselenocysteine (MSC) in water, α-TEA in liposome via aerosol, or gavaged 10 mg/kg b.w. trans-resveratrol (t-RES) in first 1:1, EtOH: physiological saline, and starting at day 24, 6.5% EtOH and 93.5% Neobee oil. A combination group was treated with each of the above three compounds, and a control group was treated with aerosolized liposome, 100 µl water, and 50 µl of the t-Res solvent. Animals were treated seven days a week, for 35+ days.
# 66 cl.4-GFP cells [2] = experiment: Tumor growth of 66 cl.4-GFP mammary tumor cells implanted in Balb/c mice; details: for tumor growth, determined by tumor volume, versus controls: liposomal preparations delivered by aerosol, 36 µg per animal per day; for reduced tumor growth: liposome aerosol, 36 µg compound per day
# Experimental: 66 cl.4-GFP cells were harvested by trypsinization, centrifuged, resuspended in McCoy's media, containing no supplements at a density of 2 X 10^5/100µl. Mice were injected in the inguinal area at a point equal distance between the 4th and 5th nipples on the right side using a 23 gauge needle.
# 50 mice were assigned (10 per group) to aerosol treatment, aerosol control, oral treatment, oral control, or to the no treatment group so that the average tumor volume for all groups were closely matched. […] Tumors were measured using calipers every other day, and volumes were calculated using the formula: volume (mm^3) = [width (mm)^2 X length (mm)] /2. Body weights were determined weekly.
# Balb/c mice were injected with 200,000 66 cl.4 GFP cells subcutaneous in the mammary fat pad area between the 4th and 5th nipple on the right side of the body.
# Mice are injected with 200,000 66cl.4 GFP murine mammary tumor cells as described on day 0. Treatments are initiated on day 9 when tumors reached 1-3 mm in size. […] Data represent the mean +/- Standard Error (SE), N = 10 mice for control and treatment groups.
# Balb/c mice were injected s. c. with 2 X 10^5 66 cl.4-GFP cells in the inguinal area between the 4th and 5th nipple on the right side of the body. When tumors reached 2 x 2-4 x 4 mm (9 days after tumor injection), mice were placed into 5 groups ((Group 1: untreated control, Group 2: liposome/aerosol control, Group 3: liposomal α-TEA aerosol treatment, Group 4: peanut oil/gavage control, Group 5: α-TEA in peanut oil/gavage treatment) of 10 mice/group) such that the mean tumor volume of each group was closely matched. Daily treatments were initiated on day 9 after tumor injection.
# Balb/c mice were injected with 200,000 66 cl.4 GFP cells subcutaneous in the mammary fat pad area between the 4th and 5th nipple on the right side of the body. […] Animals were treated with α-TEA in liposome, vitamin E succinate in liposome, or control liposome alone via aerosol, 7 days per week, for 21 days. Animals were given 75 mg compound via nebulization per day such that each animal received 36 µg compound per day.
# The size of the tumors, 9 - 21 days after injection of 200,000 66 cl.4 GFP cells between the 4th and 5th nipple on the right side of each mouse, is determined. Treatments are initiated on day 9 after tumor inoculation. Each group consists of n=10 +/- SE. Gavage Treatment = Treatments of 5 mg of α-TEA in ethanol and peanut oil (0.1 ml volume) are administered daily starting on day 9 after tumor inoculation and continuing through day 21. Gavage Control = Mice received peanut oil and ethanol alone (0.ml volume)/daily, starting on day 9 after tumor inoculation and continuing through day 21. Data (tumor size) are depicted as the mean +/- standard error for days 9, 11, 13, 15, 17, 19, and 21.
# Balb/c mice were injected with 200,000 66 cl.4 GFP cells subcutaneous in the mammary fat pad area between the 4th and 5th nipple on the right side of the body. […] Animals were treated with α-TEA in liposome, vitamin E succinate in liposome, or control liposome alone via oral gavage, 2 times per day, 7 days per week, for 21 days. Animals were given a total of 6 mg compound per day.
# 66 cl.4-GFP cells [3] = experiment: Fluorescent lung micrometastases of 66 cl.4-GFP tumors in Balb/c mice; format: in vivo
# Excerpt: as §1
# (§2) At sacrifice, the left lung lobe of each mouse of flash frozen and saves for detection of GFP expressing micrometatstic lesions via fluorescent microscopy.
# 66 cl.4-GFP cells [4] = experiment: Apoptosis by morphological evaluation of DAPI-stained nuclei; format: cell-based, mouse; details: three days
# 66 cl.4-GFP cells [5] = experiment: Fluorescent lymph node micrometastases of 66 cl.4-GFP tumors in Balb/c mice; format: in vivo
# Excerpt: as §1, §2
# 66 cl.4-GFP tumors = experiment: TUNEL assay for apoptosis in tumor sections in vivo; parameters: species or system Balb/c mice; details: for % Enhanement of TUNEL Positive Apopotic Cells/Area: liposomal formulation by aerosol, versus control
# Excerpt: Deparaffinized sections (5 µm) of tumor tissue were used to assess apoptosis using reagents supplied in the ApopTag In Situ Apoptosis Detection kit (Intergen, Purchase, NY) according to the manufacturer's instructions. Nuclei that stained brown were scored as positive for apoptosis and those that stained blue were scored as negative. At least sixteen 400X microscopic fields were scored per tumor. Data are presented as the mean ± S. E number of apoptotic cells counted in three separate tumors from each group. Pictures of tumor tissue were taken at 1000X magnification.
# [6] = test system: proliferation biomarker KI-67; experiment: KI-67 immunohistochemistry of tumor sections (cell proliferation); format: in vivo, Balb/c mice; details: for % Reduction of KI67: liposomal formulation by aerosol, versus control
# CD31 = CD31 immunohistochemistry of tumor sections (tumor blood vessel numbers); format: in vivo, Balb/c mice; details: for % Reduction of CD31 Blood Vessel Nos/Area: liposomal formulation by aerosol, versus control
# [7] = after thirty minutes, cited from earlier work
# [8] = liposomal formulation delivered by aerosol, tumor sections
# [9] = Aerosol, in nebulizer per mouse: α-TEA 5 mg/d, 9NC 2 µg/d, combination 5 mg+2µg/d
# [10] = aerosol liposome delivery, 30 min
structure (smiles),measurement,setting,value
CC(=O)Oc1c(C)c(C)c2c(c1C)CCC(C)(CCCC(C)CCCC(C)CCCC(C)C)O2 (racemic) [dl-α tocopherol acetate],Visible lung metastases/animal,66 cl.4-GFP cells [1],0.3
same,Inhibition (%) of visible lung metastases,66 cl.4-GFP cells [1],82%
"C[Se]C[C@H](N)C(=O)O [MSC, methylselenocysteine, reference compound]",tumor volume decrease from the control,MDA-MB-435 GFP FL cells,47.2%
"Cc1c(O)cc2c(c1C)O[C@](C)(CCC[C@H](C)CCC[C@H](C)CCCC(C)C)CC2 [RRR-γ tocopherol, RRR-γ-tocopherol]","tumor growth, determined by tumor volume, versus controls",66 cl.4-GFP cells [2],enhanced tumor growth
same,Visible lung metastases/animal,66 cl.4-GFP cells [1],1.15
same,Inhibition (%) of visible lung metastases,66 cl.4-GFP cells [1],32%
"Cc1c(C)c2c(c(C)c1OC(=O)CCC(=O)O)CC[C@@](C)(CCC[C@H](C)CCC[C@H](C)CCCC(C)C)O2 [vitamin E succinate, RRR-α-tocopheryl succinate, reference compound]",effect on lung metastasis,"66 cl.4-GFP cells [3]; liposomal formulation via gavage, 6 mg compound per day, 21 days",no effect on lung metastasis
same,apoptosis,66 cl.4-GFP cells [4]; 2.5 µg/ml,3%
same,apoptosis,66 cl.4-GFP cells [4]; 5 µg/ml,5%
same,apoptosis,66 cl.4-GFP cells [4]; 10 µg/ml,16%
same,apoptosis,66 cl.4-GFP cells [4]; 20 µg/ml,34%
same,effect on lymph node micrometastatic lesions (Fig. 14B),"66 cl.4-GFP cells [5]; liposome via gavage, 6 mg compound per day, 21 days",not effective in decreasing micrometastatic lung lesions
same,reduced tumor growth,"66 cl.4-GFP cells [2]; 21 days, day 15",76%
same,reduced tumor growth,"66 cl.4-GFP cells [2]; 21 days, day 17",76%
same,reduced tumor growth,"66 cl.4-GFP cells [2]; 21 days, day 19",69%
same,reduced tumor growth,"66 cl.4-GFP cells [2]; 21 days, day 21",68%
same,tumor growth versus control liposome,"66 cl.4-GFP cells [2]; liposome gavage, 6 mg compound per day, 21 days",did not reduce tumor growth
"CC(C)=CCC/C(C)=C/CC/C(C)=C/CC[C@]1(C)CCc2c(C)c(O)c(C)c(C)c2O1 [RRR-α-tocotrienol, RRR-alpha-tocotrienol]",Visible lung metastases/animal,66 cl.4-GFP cells [1],0.4
same,Inhibition (%) of visible lung metastases,66 cl.4-GFP cells [1],77%
"Cc1c(C)c2c(c(C)c1O)CCC(C)(CCCC(C)CCCC(C)CCCC(C)C)O2 (racemic) [dl-α-tocopherol, dl-alpha-tocopherol]",% Enhanement of TUNEL Positive Apopotic Cells/Area,66 cl.4-GFP tumors,44%
same,% Enhanement of TUNEL Positive Apopotic Cells/Area,66 cl.4-GFP tumors; listed as dl-alpha-tocopherol,44%
same,TUNEL Positive Apopotic Cells/Area,66 cl.4-GFP tumors; [8],2.5
same,% Reduction of KI67,[6],33%
same,% Reduction of KI67,[6]; listed as dl-alpha-tocopherol,33%
same,KI67 Inhibition of Proliferation (%),[6]; [8],40%
same,% Reduction of CD31 Blood Vessel Nos/Area,CD31,51%
same,% Reduction of CD31 Blood Vessel Nos/Area,CD31; listed as dl-alpha-tocopherol,51%
same,CD31 Blood Vessel Nos/Area,CD31; [8],112
same,Visible lung metastases/animal,66 cl.4-GFP cells [1],0.1
same,Inhibition (%) of visible lung metastases,66 cl.4-GFP cells [1],94** %
"Cc1cc(O)cc2c1O[C@](C)(CCC[C@H](C)CCC[C@H](C)CCCC(C)C)CC2 [RRR-delta tocopherol, RRR-delta-tocopherol]",Visible lung metastases/animal,66 cl.4-GFP cells [1],0.3
same,Inhibition (%) of visible lung metastases,66 cl.4-GFP cells [1],82%
"Cc1c(C)c2c(c(C)c1O)CC[C@@](C)(CCC[C@H](C)CCC[C@H](C)CCCC(C)C)O2 [RRR-α tocopherol, RRR-α-tocopherol]","tumor growth, determined by tumor volume, versus controls",66 cl.4-GFP cells [2],enhanced tumor growth
same,Visible lung metastases/animal,66 cl.4-GFP cells [1],1.7
same,Inhibition (%) of visible lung metastases,66 cl.4-GFP cells [1],0%
CC[C@@]1(O)C(=O)OCc2c1cc1n(c2=O)Cc2cc3c([N+](=O)[O-])cccc3nc2-1 [9-nitrocamptothecin],Inhibition (%) Metastases Lung,66 cl.4-GFP cells [3]; [9],55%
same,Levels of 9-nitrocamptothecin in the brain,[7]; [10],61 ng/g
same,Levels of 9-nitrocamptothecin in the liver,[7]; [10],192 ng/g
same,Levels of 9-nitrocamptothecin in the lungs,[7]; [10],310 ng/g
same,Levels of 9-nitrocamptothecin in the liver,"[7]; intramuscular delivery, 30 min",136 ng/g
same,Levels of 9-nitrocamptothecin in the lungs,"[7]; intramuscular delivery, 30 min",2 to 4 ng/g
same,Levels of 9-nitrocamptothecin in the brain,[7]; intramuscular delivery,0 ng/g
same,Inhibition (%) Metastases Lymphnode,66 cl.4-GFP cells [5]; [9],60%
same,Inhibition (%) Tumor Growth,66 cl.4-GFP cells [2]; [9],58%
